Experimental data reported in paper PMC9658586, “1,4-Naphthoquinone Motif in the Synthesis of New Thiopyrano[2,3-d]thiazoles as Potential Biologically Active Compounds” (Molecules, 2022).
Where two headings read alike, the source gives them in different places.

Legend:
[1] = tested on: panel of sixty cancer cell lines; experiment: NCI single-dose (10 μM) anticancer screen, sulforhodamine B, 60-cell-line panel; type: cell-based, human; settings: 48 h
Experimental: (§1) Considering the results of previous studies of fused thiazolidinones and their analogs, a series of thiopyrano[2,3-d]thiazoles with naphthoquinone fragments in the structure were studied for their anticancer activity. Thus, synthesized thiopyranothiazole derivatives 3.5 and 3.6 were selected by the National Cancer Institute (NCI), U.S., for their anticancer activity at 10 μM concentration toward a panel of sixty cancer cell lines representing nine different types (leukemia, melanoma, lung, colon, CNS, ovarian, renal, prostate, and breast cancers) (Figures S13–S14). Selection for screening based on new derivatives’ ability to add diversity to the NCI small molecules collection and anticancer assays were performed according to the NCI guidelines and protocols previously described. The compounds were added at the mentioned concentration, and the cell cultures were incubated for 48 h. The results for each compound were reported as the growth percent (GP%) of treated cells compared with untreated control cells.
Anticancer in vitro assay was performed on the human tumor cell lines panel derived from nine neoplastic diseases by the protocol of the Drug Evaluation Branch, National Cancer Institute, Bethesda, MD, USA [44, 45, 46]. Tested compounds were added to the culture at a single concentration (10^−5 M), and the cultures were incubated for 48 h. Endpoint determinations were made with a protein binding dye, sulforhodamine B. Results for each tested compound were reported as the GP% of the treated cells compared to untreated control cells. GP% was spectrophotometrically evaluated vs. controls not treated with test agents.

[2] = tested on: RPMI-8226/Leukemia; experiment: NCI single-dose screen, RPMI-8226; type: cell-based, human; settings: 10 μM, 48 h
Experimental: as §1
(§2) Anticancer in vitro assay was performed on the human tumor cell lines panel derived from nine neoplastic diseases by the protocol of the Drug Evaluation Branch, National Cancer Institute, Bethesda, MD, USA [44, 45, 46]. […] GP% was spectrophotometrically evaluated vs. controls not treated with test agents.

[3] = tested on: SR/Leukemia; experiment: NCI single-dose screen, SR; type: cell-based, human; settings: 10 μM, 48 h
Experimental: as §1, §2

[4] = tested on: EKVX/Non-Small Cell Lung Cancer; experiment: NCI single-dose screen, EKVX; type: cell-based, human; settings: 10 μM, 48 h
Experimental: as §1, §2

[5] = tested on: IGROV1/Ovarian Cancer; experiment: NCI single-dose screen, IGROV1; type: cell-based, human; settings: 10 μM, 48 h
Experimental: as §1, §2

[6] = tested on: UO-31/Renal Cancer; experiment: NCI single-dose screen, UO-31; type: cell-based, human; settings: 10 μM, 48 h
Experimental: as §1, §2

[7] = tested on: T-47D/Breast Cancer; experiment: NCI single-dose screen, T-47D; type: cell-based, human; settings: 10 μM, 48 h
Experimental: as §1, §2

[8] = tested on: human epidermoid cervix carcinoma KB3-1 cells; experiment: MTT cell viability assay, KB3-1; type: cell-based
Experimental: (§3) The MTT cell viability assay was performed 72 h after cells treatment with various concentrations of studied compounds and doxorubicin, a reference drug. […] It is known that ABCB1 (P-glycoprotein), MRP1/ABCC1 (multidrug resistance protein 1), and BCRP/BCG2 (breast cancer resistance protein) have been reported to be key players in resistance to chemotherapy. […] The p53 has diverse mutations in almost all human tumors, stimulating their hyper-proliferation, invasion/metastasis, and thus, influencing the potency of various chemotherapeutics (i.e., platins and anti-metabolites).
(§4) Human colon carcinoma HCT116 cells, human breast adenocarcinoma cells of MCF-7 line, human T-leukemia Jurkat cells, human chronic myelogenous leukemia K562 cells, and human keratinocytes of HaCaT line were from the Cell Collection of R.E. Kavetsky Institute of Experimental Pathology, Oncology and Radiobiology (Kyiv, Ukraine). Murine macrophages of J774.2 line were a generous gift from Professor Sir John Vane (William Harvey Research Institute, London, UK) via Professor Janusz Marcinkiewicz (Jagiellonian University Medical College, Krakow, Poland). Human colon carcinoma HCT116 p53-/- cells with knockdown of P53 gene, as well as human epidermoid cervix carcinoma KB3-1 cells and its ABCB1-overexpressing subline KBC-1, were kindly provided by Professor W. Berger (Institute of Cancer Research, Medical University of Vienna, Austria). […] Human leukemia monocytic THP-1 cells were kindly provided by Professor M. Herrmann (Department of Internal Medicine, Institute for Clinical Immunology and Rheumatology, University of Erlangen-Nuremberg, Germany). Cells were cultured in DMEM or RPMI-1640 medium supplemented with 10% fetal bovine serum (all were purchased from Biowest, Nuaille, France) at 37 °C in a humidified atmosphere containing 5% CO2.
(§5) MTT assay was used to examine the viability of tumor and pseudo-normal cells after their treatment with studied thiopyrano[2,3-d]thiazole derivatives and doxorubicin (Actavis S.R.L., Bucharest, Romania). Cells were seeded in 96-well plates at a density of 3–5 × 103. After 24 h, cells were treated with compound […], 1,4-NQ (0.1–100 µM), and doxorubicin (0.1–100 µM). After incubation for 72 h, MTT reagent (Sigma-Aldrich, St. Louis, MO, USA) was added to each well, according to the Sigma-Aldrich protocol. An absorbance Reader BioTek ELx800 (BioTek Instruments, Inc., Winooski, VT, USA) was used to measure the reaction product.

[9] = tested on: Human colon carcinoma HCT116 cells (HCT116wt); experiment: MTT cell viability assay, HCT116wt; type: cell-based
Experimental: as §3, §4, §5

[10] = tested on: Human colon carcinoma HCT116 p53-/- cells; experiment: MTT cell viability assay, HCT116 p53-/-; type: cell-based; settings: MTT, 72 h, read-out: IC50, HCT116 p53-/-
Experimental: as §3, §4, §5

[11] = tested on: human breast adenocarcinoma cells of MCF-7 line; experiment: MTT cell viability assay, MCF-7; type: cell-based
Experimental: as §3, §4, §5

[12] = tested on: Murine macrophages of J774.2 line; experiment: MTT cell viability assay, J774.2; type: cell-based; settings: pseudo-normal murine macrophages
Experimental: as §3, §4, §5

[13] = tested on: human chronic myelogenous leukemia K562 cells; experiment: MTT cell viability assay, K562; type: cell-based
Experimental: as §3, §4, §5

[14] = tested on: KBC-1 (ABCB1-overexpressing subline of KB3-1); experiment: MTT cell viability assay, KBC-1; type: cell-based; settings: Homo sapiens, 72 h
Experimental: as §3
as §4, with “Cells were cultured in DMEM or RPMI-1640 medium supplemented with 10% fetal bovine serum (all were purchased from Biowest, Nuaille, France) at 37 °C in a humidified atmosphere containing 5% CO2.” left out
MTT assay was used to examine the viability of tumor and pseudo-normal cells after their treatment with studied thiopyrano[2,3-d]thiazole derivatives and doxorubicin (Actavis S.R.L., Bucharest, Romania). […] An absorbance Reader BioTek ELx800 (BioTek Instruments, Inc., Winooski, VT, USA) was used to measure the reaction product.

[15] = tested on: isolated normal human peripheral blood lymphocytes; experiment: MTT cell viability assay, isolated lymphocytes; type: cell-based; settings: Homo sapiens, Lymphocyte, 72 h, read-out: IC50, Isolated lymphocytes, MTT, 72 h, normal human peripheral blood lymphocytes
Experimental: We continued the cytotoxicity study of synthesized derivatives 3.1–3.6 toward tumor and pseudo-normal cells in vitro. The MTT cell viability assay was performed 72 h after cells treatment with various concentrations of studied compounds and doxorubicin, a reference drug. […] The THP-1 cells, monocytes isolated from peripheral blood from an acute monocytic leukemia patient, were also sensitive to the 3.6 treatment. […] The 3.6 inhibited the viability of epidermoid carcinoma (KB3-1 and its ABCB1-overexpressing subline KBC-1) and colon carcinoma (HCT116wt and its p53 knockdown subline HCT116 p53-/-) cells. It is known that ABCB1 (P-glycoprotein), MRP1/ABCC1 (multidrug resistance protein 1), and BCRP/BCG2 (breast cancer resistance protein) have been reported to be key players in resistance to chemotherapy. […] Thus, the p53 status of colon carcinoma cells influenced the anti-tumor effects of the studied 3,5,10,11-tetrahydro-2H-benzo[6,7]thiochromeno[2,3-d][1, 3]thiazole-2,5,10-trione. The p53 has diverse mutations in almost all human tumors, stimulating their hyper-proliferation, invasion/metastasis, and thus, influencing the potency of various chemotherapeutics (i.e., platins and anti-metabolites). […] Based on our findings, one can assume a p53-dependent mode of action for 3.6 toward colon cancer cells.
as §5
The study protocol with human lymphocytes isolated from healthy adult peripheral blood was approved by BioEthics Committee of the Institute of Cell Biology of National Academy of Sciences of Ukraine (protocol No 2 from 27 January 2019), and with written consent of donor.

[16] = tested on: salmon sperm DNA; experiment: DNA/methyl green colorimetric (replacement) assay; type: binding; settings: 1µM
Experimental: In addition, we used DNA/methyl green colorimetric assay to study the possible interaction of compound 3.6 in DNA. […] This assay was used to measure the displacement of methyl green from DNA by compounds with the ability to intercalate DNA [54].
The capacity of the tested compounds to intercalate into salmon sperm DNA was determined using the methyl green assay. Briefly, salmon sperm DNA (10 mg/mL) was incubated for 1 h at 37 °C with 15 µL of methyl green solution (1 mg/mL in H2O). The compounds were added at concentrations 1 and 10 µM/mL and incubated at 37 °C in the dark for 2 h. Reduction of the absorbance of methyl green at 642 nm induced by the test compounds was measured with a multiplate reader, Plate Reader BioTek Lx80 ( BioTek Instruments, Inc., Winooski, VT, USA). Doxorubicin, a well-known intercalating agent, was used as a positive control.

For `O=C1C2=C(C(=O)c3ccccc31)C1(CCCC1)c1sc(=O)[nH]c1S2` [Compound 3.5, Spiro[benzo[6,7]thiochromeno[2,3-d]thiazole-11,1’-cyclopentane]-2,5,10(3H)-trione], the “Mean Growth, %” value ([1]; growth percent vs untreated control, 60 cell lines) was 88.33%, the “Range of Growth, %” value ([1]; range over 60 cell lines) was 51.21 to 126.93% and the “Most Sensitive Cell Line Growth, % (RPMI-8226/Leukemia)” value [2] was 53.82%. The “Most Sensitive Cell Line Growth, % (SR/Leukemia)” value [3] was 59.89%, the “Most Sensitive Cell Line Growth, % (EKVX/Non-Small Cell Lung Cancer)” value [4] was 54.98% and the “Most Sensitive Cell Line Growth, % (IGROV1/Ovarian Cancer)” value [5] was 55.15%. For the same compound, the “Most Sensitive Cell Line Growth, % (UO-31/Renal Cancer)” value [6] was 55.54%, the “Most Sensitive Cell Line Growth, % (T-47D/Breast Cancer)” value [7] was 51.21% and the IC50 ([8]; Homo sapiens, KB 3-1, 72 h) was over 50 µM. It also gave an IC50 ([9]; Homo sapiens, HCT-116, 72 h) of 43.6 µM, an IC50 ([10]; Homo sapiens, HCT-116) of over 50 µM and an IC50 ([11]; Homo sapiens, MCF7, 72 h) of over 50 µM. The IC50 ([12]; Mus musculus, J774.2, 72 h) was over 50 µM, the IC50 ([13]; Homo sapiens, K562, 72 h) was over 50 µM and the melting point was 231 to 233 °C.

`O=C1C=CC(=O)c2ccccc21` [1,4-NQ, 1,4-naphthoquinone] gave an IC50 ([8]; Homo sapiens, KB 3-1, 72 h) of 20.7 µM, an IC50 [14] of 8.33 µM and an IC50 [15] of 62.9 µM. For the same compound, the “percentage of methyl green replacement” value [16] was 65%.

Compound `O=C1C2=C(C(=O)c3ccccc31)C(C=Cc1ccccc1[N+](=O)[O-])c1sc(=O)[nH]c1S2` (stereo not shown) [Compound 3.2, 11-(2-Nitrostyryl)-3,11-dihydro-2H-benzo[6,7]thiochromeno[2,3-d]thiazole-2,5,10-trione] has an IC50 ([8]; Homo sapiens, KB 3-1, 72 h) of 39.2 µM, an IC50 ([9]; Homo sapiens, HCT-116, 72 h) of 6.81 µM and an IC50 ([10]; Homo sapiens, HCT-116) of over 50 µM. The IC50 ([11]; Homo sapiens, MCF7, 72 h) was 8.47 µM, the IC50 ([12]; Mus musculus, J774.2, 72 h) was 0.74 µM and the IC50 ([13]; Homo sapiens, K562, 72 h) was 26 µM. The melting point was 330 to 332 °C.

In the case of `CC1(C)C2=C(Sc3[nH]c(=O)sc31)C(=O)c1ccccc1C2=O` [Compound 3.4, 11,11-Dimethyl-3,11-dihydro-2H-benzo[6,7]thiochromeno[2,3-d]thiazole-2,5,10-trione], the IC50 ([8]; Homo sapiens, KB 3-1, 72 h) is reported as 26 µM, the IC50 ([9]; Homo sapiens, HCT-116, 72 h) is reported as 5.54 µM and the IC50 ([10]; Homo sapiens, HCT-116) is reported as 25.2 µM. The IC50 ([11]; Homo sapiens, MCF7, 72 h) was 34.3 µM, the IC50 ([12]; Mus musculus, J774.2, 72 h) was 11.1 µM and the IC50 ([13]; Homo sapiens, K562, 72 h) was 7.11 µM. For the same compound, the melting point was 230 to 232 °C.

Work on “11-(2-Phenylprop-1-en-1-yl)-3,11-dihydro-2H-benzo[6,7]thiochromeno[2,3-d]thiazole-2,5,10-trione [Compound 3.3]” yielded an IC50 ([8]; 72 h) of 28.8 µM, an IC50 ([9]; 72 h) of 15.8 µM and an IC50 [10] of 11.1 µM. The IC50 ([11]; 72 h) was 26.8 µM, the IC50 ([12]; 72 h) was 30.5 µM and the IC50 ([13]; 72 h) was 13 µM.

`O=C1C2=C(C(=O)c3ccccc31)C(C=Cc1ccccc1)c1sc(=O)[nH]c1S2` (stereo not shown) [Compound 3.1, 11-Styryl-3,11-dihydro-2H-benzo [6,7]thiochromeno [2,3-d]thiazole-2,5,10-trione] gave an IC50 ([8]; Homo sapiens, KB 3-1, 72 h) of 37 µM, an IC50 ([9]; Homo sapiens, HCT-116, 72 h) of 29.2 µM and an IC50 ([10]; Homo sapiens, HCT-116) of 40.3 µM. For the same compound, the IC50 ([11]; Homo sapiens, MCF7, 72 h) was 9.19 µM, the IC50 ([12]; Mus musculus, J774.2, 72 h) was 24.4 µM and the IC50 ([13]; Homo sapiens, K562, 72 h) was 43.7 µM. For the same compound, the melting point was 338 to 340 °C.
